Patent publication US20160045463A1, “USE OF METALLOPROTEASE INHIBITORS IN THE TREATMENT OF POLYCYSTIC LIVER DISEASES” (UNIVERSIDAD DE SALAMANCA, priority 2012, published 2016)

Legend:
[1] = tested on: polycystic human cholangiocytes; experiment: Metalloproteolytic activity of culture supernatants, ES001 fluorogenic peptide cleavage; type: cell-based; conditions: for metalloproteolytic activity in presence of stimulus: polycystic cholangiocytes vs basal, Table 3 final concentration: IL-6, IL-8 50 ng/ml, 17β-estradiol 1 nM/ml, VEGF, EGF, ENA-78, GRO-α 10 ng/ml, HGF 20 ng/ml, FIG. 9
Procedure: (§1) Metalloproteolytic or metalloprotease activity was measured in supernatants of cultures of normal human cholangiocytes and polycystic human cholangiocytes by an assay based on the cleavage of the ES001 fluorogenic synthetic peptide (R&D Systems Minneapolis, Minn., USA) that emits fluorescence proportional to metalloproteolytic activity. The substrate Mca-Pro-Leu-Gly-Leu-Dpa-Ala-Arg-NH2 [Mca: (7-Methoxycoumarin-4-yl)acetyl, Dpa: N-3-(2,4-Dinitrophenyl)-L-2,3-diaminopropionyl] (Knight C G, et al. FEBS Letters 1992; 296:263) is lysed between glycine and leucine by the action of the MMPs, especially MMP-1 (collagenase 1), MMP-2 (gelatinase A), MMP-7 (matrilysin), MMP-8 (collagenase 2), MMP-9 (gelatinase B), MMP-12 (macrophage elastase), MMP-13 (collagenase 3), MMP-14 (MT1-MMP), MMP-15 (MT2-MMP) and MMP-16 (MT3-MMP).
(§2) The basal metalloproteolytic activity of normal human cholangiocyte and polycystic human cholangiocytes cultures was determined by trypsinising the contents of 250 ml flasks and counting the number of cells in an inverted optical microscope using a Neubauer camera and a ½ dilution of the cell solution with trypan blue (Sigma). Next, 300,000 cells were seeded in each well of a 6-well plate and incubated with enriched DMEM/F-12 medium for 24 hours. After this time, the cells were washed with PBS and the culture medium changed for 2 ml of quiescent medium (DMEM/F-12, 1% FBS and 1% P/S) and incubated for 6 hours at 37° C./5% CO2. The supernatant was collected from each well and centrifuged at 4° C. for 10 minutes at 1,500 rpm to remove the dead cells present in the supernatant. The supernatant was concentrated 50 times using a 15 kDa (Millipore) Amicon Ultra concentrator. Next the concentrated supernatant was incubated for 2 hours at 37° C. with the ES001 fluorogenic peptide at a final concentration of 10 μM. Also, GM6001 (a global MMP inhibitor) and aprotinin (a global inhibitor of serine proteases) (both from Sigma-Aldrich) were used as controls of the specificity of the analysis of MMP activity in the assay. Recombinant MMP-10 (kindly provided by Dr. José Antonio Rodriguez Garcia, Laboratorio de Ateroesclerosis e Inflamación del CIMA, Universidad de Navarra) was used as a positive control and DMEM/F-12 medium without serum was used as the negative control. The fluorescence determination was kinetically measured in a Spectra MAX GeminiXS (Molecular Devices Sunnyvale, Calif., USA) spectrophotometer at excitation-emission wavelengths of 320-405 nm. The fluorescence intensity emitted by the culture medium was extracted from the metalloproteolytic activity values. The metalloproteolytic activity was calculated from the tangent to the curve of the fluorescence values using at least six different points over time for each type of cell and condition.
(§3) To analyse the effect of various stimuli on the metalloproteolytic activity of normal and polycystic human cholangiocytes cultures, a protocol similar to that described before in Example 2 was followed, but in this case the incubation of the cells was with quiescent medium (i.e. DMEM/F12, […]) in the presence of the corresponding stimulus (Table 3). Next, the same procedure as described for the analysis of basal metalloproteolytic activity was followed as described in Example 2.
(§4) Taking into account that: i) basal activity of polycystic human cholangiocytes in culture is greater than that of normal human cholangiocytes and ii) that IL-6 and IL-8 increased the metalloproteolytic activity of normal and polycystic human cholangiocytes, the role of these two cytokines on metalloproteolytic hyperactivity of polycystic human cholangiocytes using antibodies against the receptors of IL-6 (IL6R) and/or IL-8 (CXCR1) was investigated. […]

[2] = tested on: normal human cholangiocytes; experiment: as above; type: cell-based; conditions: for metalloproteolytic activity in presence of stimulus: normal cholangiocytes vs basal, Table 3 final concentration: IL-6, IL-8 50 ng/ml, 17β-estradiol 1 nM/ml, VEGF, EGF, ENA-78, GRO-α 10 ng/ml, HGF 20 ng/ml, FIG. 9
Procedure: as §1, §2, §3, §4

[3] = tested on: polycystic human cholangiocytes; experiment: MMP mRNA expression by quantitative PCR in the presence of IL-6, IL-8 or 17β-estradiol; type: cell-based
Procedure: (§5) To determine if the metalloproteolytic hyperactivity of polycystic human cholangiocytes is associated with changes in the pattern of expression of MMPs and their natural inhibitors, TIMPs, at the level of mRNA, this was analysed by quantitative PCR (i.e. qPCR) using the cDNA previously obtained as explained in Example 1, the gene expression of a total of 22 genes, including those containing the members of the metalloprotease family: MMP-1, MMP-2, MMP-3, MMP-7, MMP-8, MMP-9, MMP-10, MMP-11, MMP-13, MMP-14, MMP-15, MMP-16, MMP-17, MMP-18, MMP-24, MMP-25, MMP-26, MMP-27 and their natural inhibitors: TIMP-1, TIMP-2, TIMP-3, TIMP-4. Briefly, 4 μl of the cDNA were taken and 1.8 μl of a 10 μM solution of each primer (final concentration 0.9 μM) and 10 μl of FastSYBR® Green (Applied Biosystems) were added, adding sterile water (Braun) to reach a final volume of 20 μl. The amplification reactions were performed in a StepOne Plus (Applied Biosystems) thermo cycler following the standard protocol conditions for FastSYBR Green®.
(§6) The relative estimate of the mRNA levels of the genes of Table 2 were calculated from the PCR progression curve (fluorescence vs. cycle), where the cycle threshold or Ct was determined from when the fluorescence signal begins to increase exponentially. Thus to calculate the difference of relative expression of the normal and polycystic human cholangiocytes, the data obtained were analysed following the modified method of Livak and Schmittgen (Livak K J, et al. Methods 2001; 25:402), according to the following equation:
(§7) Relative values=1.8^(polycystic or normal cholangiocyte GAPDH−polycystic or normal cholangiocyte GEN)
(§8) Where the superscripts “GAPDH polycystic or normal cholangiocytes” and “Gene polycystic or normal cholangiocytes” correspond to the Ct for GAPDH and for each studied gene. The value of 1.8 (in place of 2) was used because it is assumed that the real efficiency of each amplification cycle is around 80% instead of 100%.
as §3
(§9) Taking into account the increase in metalloproteolytic activity induced by interleukins 6 and 8 and also the oestrogen 17β-estradiol in human cholangiocytes in culture, this was further investigated to determine if the increase in activity was correlated with an increase in gene expression at the level of mRNA of the various MMPs.

[4] = tested on: normal human cholangiocytes; experiment: as above; type: cell-based
Procedure: as §5, §6, §7, §8, §3, §9

[5] = in vivo; cited from earlier work
recombinant MMP-10 = recombinant MMP-10 (Homo sapiens, UniProt P09238); experiment: ES001 fluorogenic peptide assay with recombinant MMP-10 as positive control; type: biochemical; conditions: FIG. 2
Procedure: Metalloproteolytic or metalloprotease activity was measured in supernatants of cultures of normal human cholangiocytes and polycystic human cholangiocytes by an assay based on the cleavage of the ES001 fluorogenic synthetic peptide (R&D Systems Minneapolis, Minn., USA) that emits fluorescence proportional to metalloproteolytic activity. The substrate Mca-Pro-Leu-Gly-Leu-Dpa-Ala-Arg-NH2 [Mca: (7-Methoxycoumarin-4-yl)acetyl, Dpa: N-3-(2,4-Dinitrophenyl)-L-2,3-diaminopropionyl] […]
The basal metalloproteolytic activity of normal human cholangiocyte and polycystic human cholangiocytes cultures was determined by trypsinising the contents of 250 ml flasks and counting the number of cells in an inverted optical microscope using a Neubauer camera and a ½ dilution of the cell solution with trypan blue (Sigma). […] The fluorescence determination was kinetically measured in a Spectra MAX GeminiXS (Molecular Devices Sunnyvale, Calif., USA) spectrophotometer at excitation-emission wavelengths of 320-405 nm. The fluorescence intensity emitted by the culture medium was extracted from the metalloproteolytic activity values. The metalloproteolytic activity was calculated from the tangent to the curve of the fluorescence values using at least six different points over time for each type of cell and condition.

Sequence of recombinant MMP-10 (P09238 99-476, species assumed): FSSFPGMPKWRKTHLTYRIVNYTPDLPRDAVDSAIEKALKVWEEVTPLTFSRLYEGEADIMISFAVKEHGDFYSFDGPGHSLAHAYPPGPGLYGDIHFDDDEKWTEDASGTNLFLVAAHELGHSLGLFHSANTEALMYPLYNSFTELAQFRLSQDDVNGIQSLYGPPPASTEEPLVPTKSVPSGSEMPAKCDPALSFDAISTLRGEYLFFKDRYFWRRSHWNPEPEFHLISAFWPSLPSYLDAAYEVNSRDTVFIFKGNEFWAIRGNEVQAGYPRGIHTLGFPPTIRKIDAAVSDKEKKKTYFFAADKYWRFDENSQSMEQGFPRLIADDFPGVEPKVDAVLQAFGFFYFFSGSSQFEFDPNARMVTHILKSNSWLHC

For CC1=C(/C=C/C(C)=C/C=C/C(C)=C\C(=O)O)C(C)(C)CCC1 [13-cis-retinoic acid], the “basal metalloproteolytic activity in presence of inhibitor” value ([1]; polycystic cholangiocytes, 13-cis-retinoic acid 10 μM/ml or Marimastat 200 μM/ml, p<0.01, FIG. 21) was “inhibited” and the “basal metalloproteolytic activity in presence of inhibitor” value ([2]; normal cholangiocytes, 13-cis-retinoic acid 10 μM/ml or Marimastat 200 μM/ml, p<0.01, FIG. 21) was “inhibited”.
In the case of C[C@]12CC[C@@H]3c4ccc(O)cc4CC[C@H]3[C@@H]1CC[C@@H]2O [17β-estradiol], the “expression of the other metalloproteinases 1, 8, 9, 14, 16, 18, 24 and 26” value [3] is reported as “did not show changes”, the “expression of MMP-2 (mRNA)” value ([3]; FIG. 10) is reported as “increased” and the “expression of MMP-3 (mRNA)” value ([3]; FIG. 11) is reported as “unchanged”. The “expression of MMP-7 (mRNA)” value ([3]; FIG. 12) was “unchanged”, the “expression of MMP-10 (mRNA)” value ([3]; FIG. 13) was “none of the 3 molecules caused changes” and the “expression of MMP-11 (mRNA)” value ([3]; FIG. 14) was “increased”. For the same molecule, the “expression of MMP-13 (mRNA)” value ([3]; FIG. 15) was “increased”, the “expression of MMP-15 (mRNA)” value ([3]; FIG. 16) was “not altered” and the “expression of MMP-17 (mRNA)” value ([3]; FIG. 17) was “increased”. For the same molecule, the “expression of MMP-27 (mRNA)” value ([3]; FIG. 18) was “unchanged”, the “expression of the other metalloproteinases 1, 8, 9, 14, 16, 18, 24 and 26” value [4] was “did not show changes” and the “expression of MMP-2 (mRNA)” value ([4]; FIG. 10) was “none of these modules induced changes”. For the same molecule, the “expression of MMP-3 (mRNA)” value ([4]; FIG. 11) was “increased”, the “expression of MMP-7 (mRNA)” value ([4]; FIG. 12) was “None of the 3 molecules caused changes” and the “expression of MMP-10 (mRNA)” value ([4]; FIG. 13) was “increased”. For the same molecule, the “expression of MMP-11 (mRNA)” value ([4]; FIG. 14) was “increased”, the “expression of MMP-13 (mRNA)” value ([4]; FIG. 15) was “increased” and the “expression of MMP-15 (mRNA)” value ([4]; FIG. 16) was “did not change”. For the same molecule, the “expression of MMP-17 (mRNA)” value ([4]; FIG. 17) was “did not change”, the “expression of MMP-27 (mRNA)” value ([4]; FIG. 18) was “did not change” and the “metalloproteolytic activity in presence of stimulus” value [1] was “increase”. The “metalloproteolytic activity in presence of stimulus” value [2] was “increase”.
For O=C(C[C@H](CSc1ccccc1)C(=O)O)c1ccc(-c2ccc(Cl)cc2)cc1 [BAY-12-9566], the half-life in plasma [5] is listed as 90 to 100 h.
With CNC(=O)[C@H](Cc1c[nH]c2ccccc12)NC(=O)[C@@H](CC(=O)NO)CC(C)C [GM6001] the “metalloproteolytic activity of the assay with recombinant MMP-10” value (recombinant MMP-10) was “inhibited”, the metalloproteolytic activity ([1]; polycystic human cholangiocytes, presence of MMP inhibitor GM6001, p<0.001, FIG. 2) was “inhibited” and the metalloproteolytic activity ([2]; normal human cholangiocytes, presence of MMP inhibitor GM6001, p<0.001, FIG. 2) was “inhibited”.
In the case of EGF: epidermal growth factor, the “metalloproteolytic activity in presence of stimulus” value [1] is reported as “did not induce any change” and the “metalloproteolytic activity in presence of stimulus” value [2] is reported as “did not induce any change”.
